According to ChEMBL document CHEMBL3885881, “DrugMatrix”:

Species on record: Rattus norvegicus
Experiment: DrugMatrix - Regimen: Daily Repeat
Format: toxicity, organism-based, Sprague-Dawley
Parameters: regimen Daily Repeat, gender Male, age 6-8 weeks
Settings: in vivo, sc, […], route mini-PUMP - SUBCUTANEOUS, dose 0.44 mg/Kg, dose level High, vehicle 100 % SALINE; for ABSOLUTE BASOPHIL / ABSOLUTE EOSINOPHIL / ABSOLUTE LYMPHOCYTE / ABSOLUTE MONOCYTE / ABSOLUTE SEGMENTED NEUTROPHIL / BASOPHIL / EOSINOPHIL / ERYTHROCYTE COUNT / HEMATOCRIT / HEMOGLOBIN / LEUKOCYTE COUNT / LYMPHOCYTE / MEAN CORPUSCULAR HEMOGLOBIN / MEAN CORPUSCULAR HEMOGLOBIN CONCENTRATION / MEAN CORPUSCULAR VOLUME / MONOCYTE / NEUTROPHIL / NUCLEATED RED BLOOD CELLS / PLATELET COUNT: tissue Blood; for ALANINE AMINOTRANSFERASE / ALBUMIN / ALKALINE PHOSPHATASE / ASPARTATE AMINOTRANSFERASE / BLOOD UREA NITROGEN / CARBON DIOXIDE / CHLORIDE / CHOLESTEROL / CREATININE / GLUCOSE / LACTATE DEHYDROGENASE / LIPASE / PHOSPHORUS / POTASSIUM / SODIUM / TOTAL BILIRUBIN / TOTAL PROTEIN / URIC ACID: tissue Plasma

CNC[C@H](O)c1cccc(O)c1 [PHENYLEPHRINE]
ABSOLUTE BASOPHIL (72 h, time 3 day): 0 CELLS/uL
ABSOLUTE EOSINOPHIL (72 h, time 3 day): 55.67 CELLS/uL
ABSOLUTE LYMPHOCYTE (72 h, time 3 day): 14419.33 CELLS/uL
ABSOLUTE MONOCYTE (72 h, time 3 day): 594.67 CELLS/uL
ABSOLUTE SEGMENTED NEUTROPHIL (72 h, time 3 day): 1063.67 CELLS/uL
BASOPHIL (72 h, time 3 day): 0%
EOSINOPHIL (72 h, time 3 day): 0.33%
ERYTHROCYTE COUNT (72 h, time 3 day): 5.8 x10E6/uL
HEMATOCRIT (72 h, time 3 day): 34.93%
HEMOGLOBIN (72 h, time 3 day): 13 G/DL
LEUKOCYTE COUNT (72 h, time 3 day): 16.13 x10E3/uL
LYMPHOCYTE (72 h, time 3 day): 89.33%
MEAN CORPUSCULAR HEMOGLOBIN (72 h, time 3 day): 22.43 pg
MEAN CORPUSCULAR HEMOGLOBIN CONCENTRATION (72 h, time 3 day): 37.23 G/DL
MEAN CORPUSCULAR VOLUME (72 h, time 3 day): 60.33 fL
MONOCYTE (72 h, time 3 day): 3.67%
NEUTROPHIL (72 h, time 3 day): 6.67%
NUCLEATED RED BLOOD CELLS (72 h, time 3 day): 0.33 /100WBC
PLATELET COUNT (72 h, time 3 day): 1250 x10E3/uL
ALANINE AMINOTRANSFERASE (72 h, time 3 day): 43.33 u/L
ALBUMIN (72 h, time 3 day): 3.87 G/DL
ALKALINE PHOSPHATASE (72 h, time 3 day): 289 u/L
ASPARTATE AMINOTRANSFERASE (72 h, time 3 day): 78.67 u/L
BLOOD UREA NITROGEN (72 h, time 3 day): 16 mg/dL
CARBON DIOXIDE (72 h, time 3 day): 25.67 mmol/L
CHLORIDE (72 h, time 3 day): 102.67 MEQ/L
CHOLESTEROL (72 h, time 3 day): 76 mg/dL
CREATININE (72 h, time 3 day): 0.16 mg/dL
GLUCOSE (72 h, time 3 day): 149 mg/dL
LACTATE DEHYDROGENASE (72 h, time 3 day): 363 u/L
LIPASE (72 h, time 3 day): 9.33 u/L
PHOSPHORUS (72 h, time 3 day): 13.17 mg/dL
POTASSIUM (72 h, time 3 day): 6.76 MEQ/L
SODIUM (72 h, time 3 day): 148.13 MEQ/L
TOTAL BILIRUBIN (72 h, time 3 day): 0.17 mg/dL
TOTAL PROTEIN (72 h, time 3 day): 6.13 G/DL
URIC ACID (72 h, time 3 day): 1.83 mg/dL
ABSOLUTE BASOPHIL (120 h, time 5 day): 0 CELLS/uL
ABSOLUTE EOSINOPHIL (120 h, time 5 day): 45.67 CELLS/uL
ABSOLUTE LYMPHOCYTE (120 h, time 5 day): 14706.67 CELLS/uL
ABSOLUTE MONOCYTE (120 h, time 5 day): 166.33 CELLS/uL
ABSOLUTE SEGMENTED NEUTROPHIL (120 h, time 5 day): 1714.67 CELLS/uL
BASOPHIL (120 h, time 5 day): 0%
EOSINOPHIL (120 h, time 5 day): 0.33%
ERYTHROCYTE COUNT (120 h, time 5 day): 6.03 x10E6/uL
HEMATOCRIT (120 h, time 5 day): 35.63%
HEMOGLOBIN (120 h, time 5 day): 13.2 G/DL
LEUKOCYTE COUNT (120 h, time 5 day): 16.63 x10E3/uL
LYMPHOCYTE (120 h, time 5 day): 88.33%
MEAN CORPUSCULAR HEMOGLOBIN (120 h, time 5 day): 21.9 pg
MEAN CORPUSCULAR HEMOGLOBIN CONCENTRATION (120 h, time 5 day): 37.03 G/DL
MEAN CORPUSCULAR VOLUME (120 h, time 5 day): 59.07 fL
MONOCYTE (120 h, time 5 day): 1%
NEUTROPHIL (120 h, time 5 day): 10.33%
NUCLEATED RED BLOOD CELLS (120 h, time 5 day): 0 /100WBC
PLATELET COUNT (120 h, time 5 day): 1498.33 x10E3/uL
ALANINE AMINOTRANSFERASE (120 h, time 5 day): 48.33 u/L
ALBUMIN (120 h, time 5 day): 3.97 G/DL
ALKALINE PHOSPHATASE (120 h, time 5 day): 321.67 u/L
ASPARTATE AMINOTRANSFERASE (120 h, time 5 day): 89.67 u/L
BLOOD UREA NITROGEN (120 h, time 5 day): 14 mg/dL
CARBON DIOXIDE (120 h, time 5 day): 27.67 mmol/L
CHLORIDE (120 h, time 5 day): 103.33 MEQ/L
CHOLESTEROL (120 h, time 5 day): 71 mg/dL
CREATININE (120 h, time 5 day): 0.15 mg/dL
GLUCOSE (120 h, time 5 day): 166 mg/dL
LACTATE DEHYDROGENASE (120 h, time 5 day): 145.33 u/L
LIPASE (120 h, time 5 day): 9 u/L
PHOSPHORUS (120 h, time 5 day): 12.6 mg/dL
POTASSIUM (120 h, time 5 day): 6.15 MEQ/L
SODIUM (120 h, time 5 day): 148.6 MEQ/L
TOTAL BILIRUBIN (120 h, time 5 day): 0.17 mg/dL
TOTAL PROTEIN (120 h, time 5 day): 6.1 G/DL
URIC ACID (120 h, time 5 day): 1.87 mg/dL
ABSOLUTE BASOPHIL (time 14 day): 0 CELLS/uL
ABSOLUTE EOSINOPHIL (time 14 day): 155 CELLS/uL
ABSOLUTE LYMPHOCYTE (time 14 day): 14503.4 CELLS/uL
ABSOLUTE MONOCYTE (time 14 day): 573 CELLS/uL
ABSOLUTE SEGMENTED NEUTROPHIL (time 14 day): 2768.6 CELLS/uL
BASOPHIL (time 14 day): 0%
EOSINOPHIL (time 14 day): 0.8%
ERYTHROCYTE COUNT (time 14 day): 6.23 x10E6/uL
HEMATOCRIT (time 14 day): 37.14%
HEMOGLOBIN (time 14 day): 13.54 G/DL
LEUKOCYTE COUNT (time 14 day): 18 x10E3/uL
LYMPHOCYTE (time 14 day): 80.8%
MEAN CORPUSCULAR HEMOGLOBIN (time 14 day): 21.72 pg
MEAN CORPUSCULAR HEMOGLOBIN CONCENTRATION (time 14 day): 36.46 G/DL
MEAN CORPUSCULAR VOLUME (time 14 day): 59.54 fL
MONOCYTE (time 14 day): 3.2%
NEUTROPHIL (time 14 day): 15.2%
NUCLEATED RED BLOOD CELLS (time 14 day): 0 /100WBC
PLATELET COUNT (time 14 day): 1175 x10E3/uL
ALANINE AMINOTRANSFERASE (time 14 day): 43.6 u/L
ALBUMIN (time 14 day): 4.1 G/DL
ALKALINE PHOSPHATASE (time 14 day): 276.2 u/L
ASPARTATE AMINOTRANSFERASE (time 14 day): 80 u/L
BLOOD UREA NITROGEN (time 14 day): 19.6 mg/dL
CARBON DIOXIDE (time 14 day): 29.4 mmol/L
CHLORIDE (time 14 day): 100.6 MEQ/L
CHOLESTEROL (time 14 day): 69.8 mg/dL
CREATININE (time 14 day): 0.23 mg/dL
GLUCOSE (time 14 day): 173.8 mg/dL
LACTATE DEHYDROGENASE (time 14 day): 166.4 u/L
LIPASE (time 14 day): 8.6 u/L
PHOSPHORUS (time 14 day): 13.24 mg/dL
POTASSIUM (time 14 day): 7.17 MEQ/L
SODIUM (time 14 day): 144.9 MEQ/L
TOTAL BILIRUBIN (time 14 day): 0.18 mg/dL
TOTAL PROTEIN (time 14 day): 6.42 G/DL
URIC ACID (time 14 day): 2.54 mg/dL
